Assays:
[1] = biological target: RNA-directed RNA polymerase (Hepacivirus hominis, UniProt O39930); test: Inhibition of HCV NS5B RNA dependent RNA polymerase
Hepatitis C virus = test: Inhibition of HCV replication; assay type: functional, organism-based, Hepacivirus hominis

Chain of RNA-directed RNA polymerase (O39930 whole entry): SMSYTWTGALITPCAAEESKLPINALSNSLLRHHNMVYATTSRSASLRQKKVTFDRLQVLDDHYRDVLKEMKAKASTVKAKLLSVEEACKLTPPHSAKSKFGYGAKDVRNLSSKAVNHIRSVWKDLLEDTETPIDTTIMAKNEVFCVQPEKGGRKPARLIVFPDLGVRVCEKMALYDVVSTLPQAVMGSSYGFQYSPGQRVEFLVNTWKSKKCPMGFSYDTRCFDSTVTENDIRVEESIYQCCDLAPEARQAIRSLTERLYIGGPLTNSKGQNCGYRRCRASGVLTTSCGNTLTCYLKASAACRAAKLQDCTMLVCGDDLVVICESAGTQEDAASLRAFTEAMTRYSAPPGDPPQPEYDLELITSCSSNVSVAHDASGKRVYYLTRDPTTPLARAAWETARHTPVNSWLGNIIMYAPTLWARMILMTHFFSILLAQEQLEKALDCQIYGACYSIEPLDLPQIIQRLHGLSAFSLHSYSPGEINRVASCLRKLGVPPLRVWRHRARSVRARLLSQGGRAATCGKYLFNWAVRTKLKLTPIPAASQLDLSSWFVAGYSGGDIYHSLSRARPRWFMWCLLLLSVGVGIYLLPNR

SMILES	IC50 [1] [nM]	IC50 (Hepatitis C virus) [nM]
CC(C)CCn1c(=O)c(C2=NS(=O)(=O)c3ccccc3N2)c(O)c2ccccc21	200	269000
CC(C)(C)CCN1C(=O)C(C2=NS(=O)(=O)c3ccccc3N2)=C(O)[C@@H]1C1CCCCC1	486	
CC(C)(C)CCN1C(=O)C(C2=NS(=O)(=O)c3ccccc3N2)=C(O)[C@@H]1C(C)(C)C	1.7	
CC(C)(C)[C@H]1C(O)=C(C2=NS(=O)(=O)c3ccccc3N2)C(=O)N1Cc1ccccc1	22	13000
O=C1C(C2=NS(=O)(=O)c3ccccc3N2)=C(O)[C@H](Cc2cccnc2)N1Cc1ccc(F)cc1	2470	
CC(C)CCN1C(=O)C(C2=NS(=O)(=O)c3ccccc3N2)=C(O)[C@@H]1C(C)(C)C	18	8000
CCC(C)[C@H]1C(O)=C(C2=NS(=O)(=O)c3ccccc3N2)C(=O)N1Cc1ccccc1 (some centres undefined)	88	37000
CC(C)CCN1C(=O)C(C2=NS(=O)(=O)c3ccccc3N2)=C(O)[C@@H]1C(C)C	147	159000
CC(C)CCN1C(=O)C(C2=NS(=O)(=O)c3ccccc3N2)=C(O)[C@@H]1Cc1ccccc1	3570	> 60000
CC(C)(C)[C@H]1C(O)=C(C2=NS(=O)(=O)c3ccccc3N2)C(=O)N1Cc1ccc(F)cc1	59	
CC(C)(C)CCN1C(=O)C(C2=NS(=O)(=O)c3ccccc3N2)=C(O)[C@@H]1c1ccc(F)cc1	> 748	
CC(C)(C)[C@H]1C(O)=C(C2=NS(=O)(=O)c3ccccc3N2)C(=O)N1CCC1CC1	530	
CC(C)(C)[C@H]1C(O)=C(C2=NS(=O)(=O)c3ccccc3N2)C(=O)N1Cc1ccccn1	> 100000	

Reference: ChEMBL document CHEMBL1146957, “An efficient, asymmetric solid-phase synthesis of benzothiadiazine-substituted tetramic acids: potent inhibitors of the hepatitis C virus RNA-dependent RNA polymerase” (Bioorg Med Chem Lett, 2006)
